Starred links: 1 amine or outer side, 2 acyl side, 3 side chain; linkers in the order of their positions; H or OH if unused. Positions of bridges follow the written chain, without caps; N, C: chain ends. Non-standard residues stand in square brackets, D forms with d. Residues, ends and D or L forms follow the SMILES beside them. ξ: configuration not given here. *: point of attachment. Trp(1-CH2COOH) = N[C@@H](Cc1cn(CC(=O)O)c2ccccc12)C(=O)O; X10 = O=C(O)CCCCCCCCCCCCCCC(=O)N[C@@H](CN*)C(=O)O; d(cisHyp) = O=C(O)[C@H]1C[C@@H](O)CN1; βAsp = O=C(O)[C@H](CC(=O)[*:2])N[*:1]; NH(CH2)12COOH = O=C(O)CCCCCCCCCCCCN*; PEG6 = NCCOCCOCCOCCOCCOCCOCCC(=O)O; Palmitoyl = CCCCCCCCCCCCCCCC(=O)*; Hyp = O=C(O)[C@@H]1C[C@@H](O)CN1; Myristoyl = CCCCCCCCCCCCCC(=O)*; NMeNle = CCCC[C@H](NC)C(=O)O; X20 = O=C(O)CCCCCCCCCCCCCN*; NMeA = CN[C@@H](C)C(=O)O; Pra = C#CC[C@H](N)C(=O)O; Aun = NCCCCCCCCCCC(=O)O; Dab = NCC[C@H](N)C(=O)O; Dap = NC[C@H](N)C(=O)O; ξC = NC(CS)C(=O)O
biological target: T1, PD-L1 (Homo sapiens, UniProt Q9NZQ7); experiment: PD-1/PD-L1 Homogenous Time-Resolved Fluorescence (HTRF) binding assay (PD-1-Ig/PD-L1-His); settings: not given
T1 construct: hPDL1(19-239)-TVMV-His; made in house; host or cells: HEK293T
T1 sequence (Q9NZQ7 with tags, fused parts or gaps): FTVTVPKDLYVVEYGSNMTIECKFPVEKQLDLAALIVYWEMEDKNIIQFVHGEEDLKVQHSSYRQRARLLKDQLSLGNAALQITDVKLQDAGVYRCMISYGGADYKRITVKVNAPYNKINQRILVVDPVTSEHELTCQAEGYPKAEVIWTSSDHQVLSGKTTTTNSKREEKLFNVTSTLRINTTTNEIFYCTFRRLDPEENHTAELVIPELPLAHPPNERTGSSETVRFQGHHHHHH
Summary of the method: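 HTRF competition in dPBS with 0.1% BSA and 0.05% Tween-20: 20 nM PD-1-Ig added after 15 min compound pre-incubation with 10 nM PD-L1-His, then another 15 min. Signal (665/620 nm) after 30 min with APC anti-His (20 nM) and Eu anti-Ig (1 nM).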

Structure (SMILES)	IC50 [µM]
CCCC[C@H]1C(=O)N(C)[C@@H](CCCC)C(=O)N[C@@H](CCCNC(=N)N)C(=O)N[C@H](C(=O)NCC(=O)N[C@@H](Cc2cn(CCCCCNC(=O)CCC(=O)Oc3c(C)c(C)c4c(c3C)CC[C@@](C)(CCC[C@H](C)CCC[C@H](C)CCCC(C)C)O4)nn2)C(N)=O)CSCC(=O)N[C@@H](Cc2ccc(O)cc2)C(=O)N(C)[C@@H](C)C(=O)N[C@@H](CC(N)=O)C(=O)N2CCC[C@H]2C(=O)N[C@@H](CN)C(=O)N[C@@H](CC(C)C)C(=O)N2C[C@H](O)C[C@H]2C(=O)N[C@@H](Cc2c[nH]c3ccccc23)C(=O)N[C@@H](CO)C(=O)N[C@@H](Cc2csc3ccccc23)C(=O)N1C [Example 14058]	0.1 to 1.6

same assay, conditions: inhibition of PD-1-Ig binding to PD-L1-TVMV-His; value given as range class; read-out: HTRF IC50

Structure (SMILES)	IC50 [µM]
CCCCCCCCCCCCCCCC(=O)NCCCC[C@H](NC(=O)[C@@H]1CSCC(=O)N[C@@H](Cc2ccc(O)cc2)C(=O)N(C)[C@@H](C)C(=O)N[C@@H](CC(N)=O)C(=O)N2CCC[C@H]2C(=O)N[C@@H](CCN)C(=O)N[C@@H](CC(C)C)C(=O)N2C[C@H](O)C[C@H]2C(=O)N[C@@H](Cc2c[nH]c3ccccc23)C(=O)N[C@@H](CO)C(=O)N[C@@H](Cc2c[nH]c3ccccc23)C(=O)N(C)[C@@H](CCCC)C(=O)N(C)[C@@H](CCCC)C(=O)N[C@@H](CCCNC(=N)N)C(=O)N1)C(N)=O [Example 11019] ({CH2CO}-Y[NMeA]NP[Dab]L[Hyp]WSW[NMeNle][NMeNle]RCK(Palmitoyl)-NH2; thioether N-14)	0.1 to 1.6
CCCC[C@H]1C(=O)N(C)[C@@H](CCCC)C(=O)N[C@@H](CC(C)C)C(=O)N[C@H](C(=O)NCC(=O)NCC(=O)NCC(=O)NCCCCCCCCCCC(=O)O)CSCC(=O)N[C@@H](Cc2ccc(O)cc2)C(=O)N(C)[C@@H](C)C(=O)N[C@@H](CC(=O)O)C(=O)N2CCC[C@H]2C(=O)N[C@@H](CN)C(=O)N[C@@H](CCC(N)=O)C(=O)N2C[C@H](O)C[C@H]2C(=O)N[C@@H](Cc2c[nH]c3ccccc23)C(=O)N[C@@H](CCN)C(=O)N[C@@H](Cc2cn(CC(=O)O)c3ccccc23)C(=O)N1C [Example 11095] ({CH2CO}-Y[NMeA]DP[Dap]Q[Hyp]W[Dab][Trp(1-CH2COOH)][NMeNle][NMeNle]LCGGG[Aun]-OH; thioether N-14)	0.0003 to 0.0099
CCCCCCCCCCCCCC(=O)NCCCC[C@H](NC(=O)CCOCCOCCOCCOCCOCCOCCNC(=O)CNC(=O)C1CSCC(=O)N[C@@H](Cc2ccc(O)cc2)C(=O)N(C)[C@@H](C)C(=O)N[C@@H](CC(=O)O)C(=O)N2CCC[C@H]2C(=O)N[C@@H](Cc2cnc[nH]2)C(=O)N[C@@H](CC(C)C)C(=O)N2C[C@H](O)C[C@H]2C(=O)N[C@@H](Cc2c[nH]c3ccccc23)C(=O)N[C@@H](CO)C(=O)N[C@@H](Cc2c[nH]c3ccccc23)C(=O)N(C)[C@@H](CCCC)C(=O)N(C)[C@@H](CCCC)C(=O)N[C@@H](CCCNC(=N)N)C(=O)N1)C(N)=O (stereo partly shown) [Example 11015] ({CH2CO}-Y[NMeA]DPHL[Hyp]WSW[NMeNle][NMeNle]R[ξC]G[PEG6]K(Myristoyl)-NH2; thioether N-14)	0.01 to 0.099
CCCCCCCCCCCCCCCC(=O)NCCCC[C@H](NC(=O)[C@H](CC(=O)O)NC(=O)CNC(=O)CNC(=O)[C@@H]1CSCC(=O)N[C@@H](Cc2ccc(O)cc2)C(=O)N(C)[C@@H](C)C(=O)N[C@@H](CC(N)=O)C(=O)N2CCC[C@H]2C(=O)N[C@@H](CCN)C(=O)N[C@@H](CC(C)C)C(=O)N2C[C@H](O)C[C@H]2C(=O)N[C@@H](Cc2c[nH]c3ccccc23)C(=O)N[C@@H](CO)C(=O)N[C@@H](Cc2c[nH]c3ccccc23)C(=O)N(C)[C@@H](CCCC)C(=O)N(C)[C@@H](CCCC)C(=O)N[C@@H](CCCNC(=N)N)C(=O)N1)C(N)=O [Example 11026] ({CH2CO}-Y[NMeA]NP[Dab]L[Hyp]WSW[NMeNle][NMeNle]RCGGDK(Palmitoyl)-NH2; thioether N-14)	0.1 to 1.6
CCCC[C@H]1C(=O)N(C)[C@@H](CCCC)C(=O)N[C@@H](CC(C)C)C(=O)N[C@H](C(=O)NCC(=O)N[C@@H](CC(=O)NCCOCCOCCOCCOCCOCCOCCC(=O)NC[C@H](NC(=O)CCCCCCCCCCCCCCC(=O)O)C(=O)O)C(=O)O)CSCC(=O)N[C@@H](Cc2ccc(O)cc2)C(=O)N(C)[C@@H](C)C(=O)N[C@@H](CC(N)=O)C(=O)N2CCC[C@H]2C(=O)N[C@@H](CN)C(=O)N[C@@H](CC(C)C)C(=O)N2C[C@H](O)C[C@@H]2C(=O)N[C@@H](Cc2c[nH]c3ccccc23)C(=O)N[C@@H](CCN)C(=O)N[C@@H](Cc2cn(CC(=O)O)c3ccccc23)C(=O)N1C [Example 11164] ({CH2CO}-Y[NMeA]NP[Dap]L[d(cisHyp)]W[Dab][Trp(1-CH2COOH)][NMeNle][NMeNle]LCG[βAsp][PEG6]-X10; thioether N-14)	0.0003 to 0.0099

Results, then the compound that gave them:

IC50 [µM]	Structure (SMILES)
0.01 to 0.099	C#CC[C@H](NC(=O)CNC(=O)[C@@H]1CSCC(=O)N[C@@H](Cc2ccc(O)cc2)C(=O)N(C)[C@@H](C)C(=O)N[C@@H](CC(N)=O)C(=O)N2CCC[C@H]2C(=O)N[C@@H](CN)C(=O)N[C@@H](CC(C)C)C(=O)N2C[C@H](O)C[C@H]2C(=O)N[C@@H](Cc2c[nH]c3ccccc23)C(=O)N[C@@H](CCN)C(=O)N[C@@H](Cc2cn(CC(=O)O)c3ccccc23)C(=O)N(C)[C@@H](CCCC)C(=O)N(C)[C@@H](CCCC)C(=O)N[C@@H](CCC(=O)O)C(=O)N1)C(=O)O [INT130AD] ({CH2CO}-Y[NMeA]NP[Dap]L[Hyp]W[Dab][Trp(1-CH2COOH)][NMeNle][NMeNle]ECG[Pra]-OH; thioether N-14)
0.1 to 1.6	CCCC[C@H]1C(=O)N(C)[C@@H](CCCC)C(=O)N[C@@H](CC(C)C)C(=O)N[C@H](C(=O)NCC(=O)N[C@@H](Cc2cn(CCOCCOCCOCCOCCOCCOCCOCCOCCOCCOCCOCCNC(=O)CC[C@H](NC(=O)CCCCCCCCCCCCCCCCC(=O)O)C(=O)O)nn2)C(=O)O)CSCC(=O)N[C@@H](Cc2ccc(O)cc2)C(=O)N2CCCC[C@H]2C(=O)N[C@@H](CC(N)=O)C(=O)N2CCC[C@H]2C(=O)N[C@@H](CNC)C(=O)N[C@@H](CC(C)C)C(=O)N2C[C@H](O)C[C@H]2C(=O)N[C@@H](Cc2c[nH]c3ccccc23)C(=O)N[C@@H](CCN)C(=O)N[C@@H](Cc2cn(CC(=O)O)c3ccccc23)C(=O)N1C [Example 14105]
0.01 to 0.099	CCCC[C@H]1C(=O)N(C)[C@@H](CCCC)C(=O)N[C@@H](CC(C)C)C(=O)N[C@H](C(=O)NCC(=O)NCC(=O)N[C@@H](CC(=O)O)C(=O)NCCCCCCCCCCCCCC(=O)O)CSCC(=O)N[C@@H](Cc2ccc(O)cc2)C(=O)N(C)[C@@H](C)C(=O)N[C@@H](CC(N)=O)C(=O)N2CCC[C@H]2C(=O)N[C@@H](CN)C(=O)N[C@@H](CC(C)C)C(=O)N2C[C@H](O)C[C@@H]2C(=O)N[C@@H](Cc2c[nH]c3ccccc23)C(=O)N[C@@H](CCN)C(=O)N[C@@H](Cc2cn(CC(=O)O)c3ccccc23)C(=O)N1C [Example 11201] ({CH2CO}-Y[NMeA]NP[Dap]L[d(cisHyp)]W[Dab][Trp(1-CH2COOH)][NMeNle][NMeNle]LCGGD-X20; thioether N-14)
0.0003 to 0.0099	CCCC[C@H]1C(=O)N(C)[C@@H](CCCC)C(=O)N[C@@H](CC(C)C)C(=O)N[C@H](C(=O)NCC(=O)N[C@@H](Cc2cn(CC[C@H](NC(=O)CCCCCCCCCCCCCCCCC(=O)O)C(=O)O)nn2)C(=O)O)CSCC(=O)N[C@@H](Cc2ccc(O)cc2)C(=O)N2CCCC[C@H]2C(=O)N[C@@H](CC(N)=O)C(=O)N2CCC[C@H]2C(=O)N[C@@H](CNC)C(=O)N[C@@H](CC(C)C)C(=O)N2C[C@H](O)C[C@H]2C(=O)N[C@@H](Cc2c[nH]c3ccccc23)C(=O)N[C@@H](CCN)C(=O)N[C@@H](Cc2cn(CC(=O)O)c3ccccc23)C(=O)N1C [Example 13133]
0.0003 to 0.0099	C#CC[C@H](NC(=O)CNC(=O)[C@@H]1CSCC(=O)N[C@@H](Cc2ccc(O)cc2)C(=O)N(C)[C@@H](C)C(=O)N[C@@H](CC(=O)O)C(=O)N2CCC[C@H]2C(=O)N[C@@H](Cc2c[nH]cn2)C(=O)N[C@@H](CCCCN)C(=O)N2C[C@H](O)C[C@H]2C(=O)N[C@@H](Cc2c[nH]c3ccccc23)C(=O)N[C@@H](CCCCN)C(=O)N[C@@H](Cc2c[nH]c3ccccc23)C(=O)N(C)[C@@H](CCCC)C(=O)N(C)[C@@H](CCCC)C(=O)N[C@@H](CCC(=O)O)C(=O)N1)C(=O)NCC(N)=O [INT 1400A] ({CH2CO}-Y[NMeA]DPHK[Hyp]WKW[NMeNle][NMeNle]ECG[Pra]G-NH2; thioether N-14)
0.01 to 0.099	CCCC[C@H]1C(=O)N(C)[C@@H](CCCC)C(=O)N[C@@H](CC(C)C)C(=O)N[C@H](C(=O)NCC(=O)NCC(=O)NCC(=O)NCCCCCCCCCCCCC(=O)O)CSCC(=O)N[C@@H](Cc2ccc(O)cc2)C(=O)N(C)[C@@H](C)C(=O)N[C@@H](CC(=O)O)C(=O)N2CCC[C@H]2C(=O)N[C@@H](Cc2cnc[nH]2)C(=O)N[C@@H](CCCCN)C(=O)N2C[C@H](O)C[C@H]2C(=O)N[C@@H](Cc2c[nH]c3ccccc23)C(=O)N[C@@H](CCCCN)C(=O)N[C@@H](Cc2cn(CC(=O)O)c3ccccc23)C(=O)N1C [Example 11216] ({CH2CO}-Y[NMeA]DPHK[Hyp]WK[Trp(1-CH2COOH)][NMeNle][NMeNle]LCGGG-{NH(CH2)12COOH}; thioether N-14)
0.01 to 0.099	CCCC[C@H]1C(=O)N(C)[C@@H](CCCC)C(=O)N[C@@H](CC(=O)O)C(=O)N[C@H](C(=O)N[C@@H](Cc2cn(CCC(NC(=O)CCCCCCCCCCCCCCCCC(=O)O)C(=O)O)nn2)C(=O)O)CSCC(=O)N[C@@H](Cc2ccc(O)cc2)C(=O)N(C)[C@@H](C)C(=O)N[C@@H](CC(N)=O)C(=O)N2CCC[C@H]2C(=O)N[C@@H](CN)C(=O)N[C@@H](CC(C)C)C(=O)N2C[C@H](O)C[C@H]2C(=O)N[C@@H](Cc2c[nH]c3ccccc23)C(=O)N[C@@H](CCN)C(=O)N[C@@H](Cc2cn(CC(=O)O)c3ccccc23)C(=O)N1C (stereo partly shown) [Example 13131]
